Several values for one entry are separate records, joined by “and”; a condition that tells them apart may be missing. Equal values may be shown once. Read-outs that look alike come from different tables or passages of the source.
Experiments:
Target lesions = test: Tumor response, Compound 1 with etoposide and carboplatin; assay type: in vivo, human; design: Cycle 2 Target Lesion Sum / Cycle4 Target Lesion Sum / Cycle 6 Target Lesion Sum: unit not given here
Source text: As shown in FIG. 64 all 6 patients had at least partial responses during the course of 2 to 6 cycles of chemotherapy. Target lesions were summed and response tabulated as follows: […]

mouse splenocytes = test: Interferon gamma from splenocytes stimulated ex vivo with anti-CD3/antiCD28 after 5FU; assay type: in vivo, C57BL/6 Mice; conditions: mice pretreated with 100 mg/kg Compound 1, 5FU 50 mg/kg
Source text: FIG. 59 is a bar graph of interferon gamma concentration (pg/ml) at day 2 and 7 for mouse splenocytes that were isolated and stimulated ex vivo with anti-CD3/antiCD28.

[1] = Repeat-dose toxicity in rats (IV 7 days, oral 14 days); assay type: in vivo
Protocol: The magnitude and/or duration of this effect differed among cell lineages but was dose-related in all lineages. Effects on hematopoiesis were readily monitored by peripheral blood cell counts and were reversible when dosing stopped.
In both species, the toxicity profile was similar and the repeat-dose toxicity studies identified no observed adverse effect levels (NOAELs). […] This IV NOAEL was the basis for selecting a starting dose of 6 mg/m^2 for the first clinical trial, which is 1/10th of the lowest safe dose level in any animal study.
In rats, the toxicity profile with oral administration was similar to that with IV administration, except that pulmonary macrophage accumulation occurred with oral administration for 14 days at ≧5 mg/kg (≧30 mg/m^2) but not with IV administration for 7 days at up to 25 mg/kg (≧150 mg/m^2). Based on this finding, the oral NOAEL was 2 mg/kg (≧12 mg/m^2).

[2] = Nonclinical IV and oral pharmacokinetics in dogs; assay type: in vivo; conditions: dog, plasma
bone marrow cells = test: Bone marrow EdU incorporation (S-phase) after single dose in dogs; assay type: in vivo; conditions: increasing single doses, 8 and 16 hours
[3] = Compound 1 PK dosed Days 1-5 with topotecan; assay type: in vivo, human; conditions: for pre-dose concentration averaging: Day 4, mean; for AUC(0-inf) / Cmax / half-life: human, plasma, intravenous; for AUC(0-inf): read-out: AUCinf; for Cmax: read-out: Cmax; for half-life: read-out: t½ (converted)
Protocol: Analysis of plasma concentration versus time data for calculation of standard pharmacokinetic (PK) parameters following intravenous infusion administration was conducted using Phoenix WinNonlin version 6.3 using a nominal infusion duration and scheduled blood sampling times.

[4] = Compound 1 200 mg/m^2 followed by etoposide and carboplatin, individual subjects
[5] = 200 mg/m^2 with Topotecan 0.75 mg/m^2 (Cohort 3), Day 1, Max
[6] = 200 mg/m^2 with Topotecan 0.75 mg/m^2 (Cohort 3), Day 1, individual subjects
[7] = 200 mg/m^2 with Topotecan 0.75 mg/m^2 (Cohort 3), Day 4, individual subjects
[8] = 200 mg/m^2 with Topotecan 1.25 mg/m^2 (Cohort 2), Day 1, Max
[9] = 200 mg/m^2 with Topotecan 1.25 mg/m^2 (Cohort 2), Day 1, Min
[10] = 200 mg/m^2 with Topotecan 1.25 mg/m^2 (Cohort 2), Day 1, individual subjects
[11] = 200 mg/m^2 with Topotecan […]^2 (Cohort 1), Day 1, Max
[12] = 200 mg/m^2 with Topotecan […]^2 (Cohort 1), Day 1, individual subjects
[13] = 200 mg/m^2 with Topotecan 0.75 mg/m^2 (Cohort 3), Day 1, Geo. Mean
[14] = 200 mg/m^2 with Topotecan 0.75 mg/m^2 (Cohort 3), Day 1, Mean
[15] = 200 mg/m^2 with Topotecan 0.75 mg/m^2 (Cohort 3), Day 1, Median
[16] = 200 mg/m^2 with Topotecan 0.75 mg/m^2 (Cohort 3), Day 4, Geometric Mean
[17] = 200 mg/m^2 with Topotecan 0.75 mg/m^2 (Cohort 3), Day 4, Mean
[18] = 200 mg/m^2 with Topotecan 0.75 mg/m^2 (Cohort 3), Day 4, Median

CN1CCN(c2ccc(Nc3ncc4cc5n(c4n3)C3(CCCCC3)CNC5=O)nc2)CC1 [Compound 1, 2′-((5-(4-methylpiperazin-1-yl)pyridin-2-yl)amino)-7′,8′-dihydro-6′H-spiro[cyclohexane-1,9′-pyrazino[1′,2′:1,5]pyrrolo[2,3-d]pyrimidin]-6′-one]
Cycle 2 Target Lesion Sum (Target lesions; [4]): 74 and 22 and 76 and 161 and 50 and 35 | Cycle4 Target Lesion Sum (Target lesions; [4]): 54 and 0 (2×) and 62 and 146 | Cycle 6 Target Lesion Sum (Target lesions; [4]): 47 and 0 | patients with at least partial responses (Target lesions; Compound 1 200 mg/m^2 with etoposide and carboplatin, 2 to 6 cycles, 6 patients): 6 patients | interferon gamma levels (mouse splenocytes): did not decrease significantly | dose with clinically significant leukopenia ([1]; 7 days): ≥ 150 mg/m^2 | dose with pulmonary macrophage accumulation ([1]; oral administration for 14 days): ≥ 5 mg/kg | NOAEL at 7 days ([1]; rat, in vivo, IV, read-out: NOAEL for IV administration): 10 mg/kg | NOAEL at 14 days ([1]; rat, in vivo, oral): 2 mg/kg | half-life ([2]; both sexes, after IV administration): ~4 h | bioavailability ([2]; oral 10 mg/kg): 30.2% | bioavailability ([2]; oral 90 mg/kg): 17.1% | bone marrow cells in S phase (bone marrow cells): decrease in the number of cells in S phase | AUC24.5 [3, 5]: 2540 ng·h/mL | AUCinf [3, 5]: 2660 ng·h/mL | t½ [3, 5]: 9.24 h | t½ ([3]; 200 mg/m^2 with Topotecan 0.75 mg/m^2 (Cohort 3), Day 1, Min): 6.64 h | AUC24.5 [3, 6]: 2540 ng·h/mL | AUCinf [3, 6]: 2240 ng·h/mL and 2660 ng·h/mL | t½ [3, 6]: 6.64 h and 9.24 h and 6.69 h | t½ ([3]; 200 mg/m^2 with Topotecan 0.75 mg/m^2 (Cohort 3), Day 4, Min): 6.87 h | t½ [3, 7]: 9.54 h and 6.87 h | AUC24.5 [3, 8]: 2450 ng·h/mL | AUCinf [3, 8]: 2720 ng·h/mL | AUC24.5 [3, 9]: 2130 ng·h/mL | t½ [3, 9]: 6.14 h | AUC24.5 [3, 10]: 2450 ng·h/mL and 2130 ng·h/mL | AUCinf [3, 10]: 2720 ng·h/mL and 2430 ng·h/mL | t½ ([3]; 200 mg/m^2 with Topotecan 1.25 mg/m^2 (Cohort 2), Day 4, Max): 10.6 h | t½ ([3]; 200 mg/m^2 with Topotecan 1.25 mg/m^2 (Cohort 2), Day 4, Min): 7.15 h | t½ ([3]; 200 mg/m^2 with Topotecan 1.25 mg/m^2 (Cohort 2), Day 4, individual subjects): 9.10 h and 10.6 h | AUCinf [3, 11]: 2430 ng·h/mL | t½ [3, 11]: 6.24 h | t½ ([3]; 200 mg/m^2 with Topotecan […]^2 (Cohort 1), Day 1, Min): 5.60 h | AUCinf [3, 12]: 2430 ng·h/mL | t½ [3, 12]: 6.24 h | t½ ([3]; 200 mg/m^2 with Topotecan […]^2 (Cohort 1), Day 4, Max): 9.15 h | t½ ([3]; 200 mg/m^2 with Topotecan […]^2 (Cohort 1), Day 4, Min): 6.96 h | t½ ([3]; 200 mg/m^2 with Topotecan […]^2 (Cohort 1), Day 4, individual subjects): 9.15 h | pre-dose concentration averaging ([3]; Cohort 2 (Topotecan 1.25 mg/m^2)): 33.3 ng/mL | pre-dose concentration averaging ([3]; Cohort 3 (Topotecan 0.75 mg/m^2)): 27.1 ng/mL | AUC(0-inf) [3, 13]: 2170 ng·h/mL | Cmax [3, 13]: 1060 ng/mL | half-life [3, 13]: 7.33 h | AUC(0-inf) [3, 14]: 2200 ng·h/mL | Cmax [3, 14]: 1140 ng/mL | half-life [3, 14]: 7.4 h | AUC(0-inf) [3, 15]: 2220 ng·h/mL | half-life [3, 15]: 6.85 h | half-life [3, 6]: 7.01 h | Cmax [3, 16]: 1200 ng/mL | half-life [3, 16]: 8.69 h | Cmax [3, 17]: 1330 ng/mL | half-life [3, 17]: 8.81 h | Cmax [3, 18]: 1590 ng/mL | half-life [3, 18]: 8.82 h | half-life [3, 7]: 10.7 h | AUC(0-inf) ([3]; 200 mg/m^2 with Topotecan 1.25 mg/m^2 (Cohort 2), Day 1, Geo. Mean): 2490 ng·h/mL

From patent publication US20160220569A1, “CDK4/6 Inhibitor Dosage Formulations For The Protection Of Hematopoietic Stem And Progenitor Cells During Chemotherapy” (G1 Therapeutics, Inc., priority 2015, published 2016)
